# Tests used:
# [1] = test system: pilocarpine-induced seizures; experiment: pilocarpine model of (temporal lobe) epilepsy; assay type: in vivo
# Description: Isolated CBD was injected intra-peritoneally (IP) in the standard vehicle (1:1:18 ethanol:Cremophor:0.9% w/v NaCl) at doses of 50, 100 and 200 mg/kg alongside animals that received vehicle alone at a matched volume. 15 minutes later methylscopolamine (1 mg/kg; to reduce peripheral muscarinic effects of pilocarpine) was administered followed, 45 minutes later by pilocarpine (380 mg/kg, IP) administration.
# [2] = test system: grand mal patients; details: 200-300 mg of cannabidiol plus regular medication; cited from earlier work
# [3] = test system: epileptic patients; details: 200-300 mg of cannabidiol per day in addition to standard antiepileptic drugs; 12 epileptic patients; cited from earlier work
# [4] = test system: seizure frequency in a single patient; details: 900-1200 mg of cannabidiol a day for 10 months; cited from earlier work
# [5] = test system: institutionalized children not responding to standard treatment; details: 5 institutionalized children not responding to phenobarbital and phenoytin; cited from earlier work
# [6] = CBD 0 mg/kg, Phenobarbitol 10 mg/kg
# [7] = CBD 0 mg/kg, Phenobarbitol 20 mg/kg
# [8] = CBD 0 mg/kg, Phenobarbitol 40 mg/kg
# [9] = CBD 100 mg/kg, Phenobarbitol 0 mg/kg
# [10] = significance of effect, pilocarpine model
structure (smiles),measurement,setting,value
"CCC1(c2ccccc2)C(=O)NC(=O)NC1=O [Phenobarbitol, phenobarbital]",Onset latency,[1]; [6],800 s
same,Seizure free (%),[1]; [6],25%
same,Onset latency,[1]; [7],900 s
same,Seizure free (%),[1]; [7],55%
same,Onset latency,[1]; [8],1800 s
same,Seizure free (%),[1]; [8],75%
"C=C(C)[C@@H]1CCC(C)=C[C@H]1c1c(O)cc(CCCCC)cc1O [CBD, cannabidiol]",Onset latency,[1]; [9],500 s
same,Seizure free (%),[1]; [9],0%
same,ALL EPISODES Mean severity of episodes,[1]; [10],* (* = p < 0.05)
same,EPISODE 2 Severity,[1]; [10],* (* = p < 0.05)
same,patients who remained unchanged,[2],1
same,patients who showed complete improvement,[2],3
same,patients who showed minor improvement,[2],2
same,patients who showed partial improvement,[2],2
same,unwanted effect,[2],mild sedation
same,improvement in seizure frequency,[3],no significant improvement in seizure frequency
same,seizure frequency,[4],markedly reduced
"CCCC(CCC)C(=O)O [Valproate, valproate]",ALL EPISODES Mean duration of episodes,[1]; [10],* (* = p < 0.05)
same,ALL EPISODES Mean number of episodes,[1]; [10],** (** = p < 0.01)
same,ALL EPISODES Mean severity of episodes,[1]; [10],** (** = p < 0.01)
same,ALL EPISODES Mean time spent in episodes,[1]; [10],* (* = p < 0.05)
same,ALL EPISODES Percentage episode free,[1]; [10],** (** = p < 0.01)
same,ALL EPISODES Percentage ≥3 episodes,[1]; [10],# (# = p < 0.01)
same,EPISODE 1 Latency,[1]; [10],** (** = p < 0.01)
same,EPISODE 1 Severity,[1]; [10],* (* = p < 0.05)
same,EPISODE 2 Duration,[1]; [10],# (# = p < 0.01)
same,EPISODE 2 Latency,[1]; [10],# (# = p < 0.01)
"CCCCCc1cc(O)c2c(c1)OC(C)(C)[C@@H]1CCC(C)=C[C@@H]21 [THC, tetrahydrocannabinol]",seizure outcome,[5],"One became entirely free of seizures, one became almost completely free of seizures, and the other three did no worse than before"
